These results are taken from patent US11331360B2, “Commiphora molmol (myrrh) resin extracts and uses thereof for wound healing and treatment and prevention of mucositis and other diseases” (Umayana LLC, priority 2018, dated 2022).

The structures appear in SMILES notation.

This experiment concerns oral mucositis. The experiment is described as follows: Treatment of oral mucositis in cancer subjects (case examples 2-6). It is filed as in vivo, human. To be noted: grade IV mucositis, listed agents used with cryotherapy. How it is done: The efficacy and safety of the compositions comprising the disclosed acidic extract of myrrh resin were clinically assessed for prevention, treatment and/or improvement of oral and gastrointestinal mucositis.
In place of prophylactic incubation, the subject began using the composition comprising the disclosed acidic extract of myrrh resin in the form of gel four times a day.
(§1) The subject began using the composition comprising the disclosed acidic extract of myrrh resin in the form of gel four times a day.
G: oral examination performed on the second day of treatment. H: oral examination performed on the third day of treatment. I: oral examination performed on the fourth day of treatment.
as §1
D, E and F: oral examination performed on the first day of treatment. G, H, I and J: oral examination performed on the third day of treatment. K, L and M: oral examination performed on the fifth day of treatment.
B: oral examination performed on the first day of treatment. C: oral examination performed on the second day of treatment. D: oral examination performed on the third day of treatment. E: oral examination performed on the fourth day of treatment.

Where [1] appears, read: Example 2: Hodgkin's Lymphoma, high dose chemotherapy.
Where [2] appears, read: Example 4: pancreatic adenocarcinoma, chemotherapy.
[3] abbreviates: Example 5: Larynx CA, induction chemotherapy.
The mark [4] stands for this setting: Example 6: larynx malignant neoplasma, radiation therapy.

On to `N=C(NCCCCCCNC(=N)NC(=N)Nc1ccc(Cl)cc1)NC(=N)Nc1ccc(Cl)cc1.O=C(O)[C@H](O)[C@@H](O)[C@H](O)[C@H](O)CO.O=C(O)[C@H](O)[C@@H](O)[C@H](O)[C@H](O)CO` [chlorhexidine gluconate], for which the “effect of earlier treatment of the oral lesions” value reads like this: under setting [1], “not effective”; under setting [2], “mild decrease in mucositis”; under setting [3], “mild decrease in mucositis”; under setting [4], “not effective”.

As for `O=C([O-])O.[Na+]` [sodium bicarbonate], the “effect of earlier treatment of the oral lesions” value by setting is: under setting [1], “not effective”; under setting [2], “mild decrease in mucositis”; under setting [3], “mild decrease in mucositis”; under setting [4], “not effective”.
